Data on nine compounds can be found in patent publication US20200055891A1, “NOVEL PHOSPHOTRIAZOLE MRNA 5'-END CAP ANALOGS, COMPOSITION COMPRISING THE SAME, RNA MOLECULE INCORPORATING THE SAME, USES THEREOF AND METHOD OF SYNTHESIZING RNA MOLECULE, PROTEIN OR PEPTIDE” (UNIWERSYTET WARSZAWSKI, priority 2016, published 2020).

Read-outs that look alike come from different tables or passages of the source.

A short description of data set [1]: Hydrolysis in D2O seen in NMR spectra. The data set is classed as physicochemical. As to conditions: dissolved in D2O just before NMR measurement; given if higher than 5%. How it is done: Some cap analogues hydrolyzed in D2O gradually. Although pure compounds (see HPLC profiles, Supporting Information 2) were dissolved in D2O just before measurements, the spectra indicated some level of hydrolysis. % of hydrolysis is provided along with compound characterization data, if higher than 5%.

Data set [2] deals with T1, eIF4E (Mus musculus, UniProt P63073). Description: Association constants (KAS) of cap analogue-eIF4E complexes, fluorescence quenching titration. In kind it is binding. As to conditions: 20° C., 50 mM Hepes/KOH pH 7.20, 100 mM KCl; weighted average of triplicate. As for the experimental part:
Association constants for cap analogue-eIF4E complexes were determined using fluorescence quenching titration method as described previously.^42 Measurements were performed using a quartz cuvette with optical path length of 4 mm for absorption and 10 mm for emission on LS-50B spectrofluorometer Perkin-Elmer Co. (Waltham, Mass., USA). Titration experiments were carried out at 20° C. in 50 mM Hepes/KOH buffer, pH 7.20 containing 100 mM KCl, 0.5 mM EDTA, and 1 mM DTT. During the experiment 1 μl aliquots of ligand solution was added to the 1400 μl of 0.1 μM protein solution. Protein fluorescence was monitored at 337 or 345 nm (excitation 280 or 295 nm, respectively). For data analysis fluorescence intensity correction was applied for sample dilution and inner filter effect. Association constants were determined by fitting theoretical dependence of fluorescence intensity on total ligand concentration. Each experiment was performed in triplicate, the association constants were calculated as weighted averages.

Data set [3] deals with T2, SP6 RNA polymerase (Enterobacteria phage SP6, UniProt P06221).
T2 construct: purchased New England BioLabs
T2 sequence (P06221 1-874): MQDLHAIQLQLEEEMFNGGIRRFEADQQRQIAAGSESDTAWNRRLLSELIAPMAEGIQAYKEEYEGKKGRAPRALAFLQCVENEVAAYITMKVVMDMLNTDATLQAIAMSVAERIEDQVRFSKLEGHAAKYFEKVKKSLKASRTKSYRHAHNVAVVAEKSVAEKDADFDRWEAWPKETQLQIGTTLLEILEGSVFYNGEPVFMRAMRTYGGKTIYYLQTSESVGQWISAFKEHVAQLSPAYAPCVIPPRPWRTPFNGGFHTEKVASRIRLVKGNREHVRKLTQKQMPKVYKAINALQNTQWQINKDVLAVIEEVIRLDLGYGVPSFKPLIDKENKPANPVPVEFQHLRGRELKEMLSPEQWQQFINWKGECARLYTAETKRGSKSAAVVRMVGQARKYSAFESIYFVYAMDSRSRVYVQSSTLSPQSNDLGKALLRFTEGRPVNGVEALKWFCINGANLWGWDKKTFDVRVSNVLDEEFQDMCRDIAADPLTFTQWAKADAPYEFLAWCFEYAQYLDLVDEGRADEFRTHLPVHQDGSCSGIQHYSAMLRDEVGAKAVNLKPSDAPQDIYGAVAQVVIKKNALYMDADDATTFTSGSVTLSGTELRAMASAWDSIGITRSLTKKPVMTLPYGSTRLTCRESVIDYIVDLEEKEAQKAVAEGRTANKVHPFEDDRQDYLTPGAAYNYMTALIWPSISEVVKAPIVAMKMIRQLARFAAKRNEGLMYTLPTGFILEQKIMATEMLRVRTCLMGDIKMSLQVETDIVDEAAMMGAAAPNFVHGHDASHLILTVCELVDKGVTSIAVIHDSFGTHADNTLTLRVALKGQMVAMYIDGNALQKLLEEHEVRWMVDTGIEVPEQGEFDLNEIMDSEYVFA
In words: Capping efficiency: incorporation of cap analogues at the 5′ end of short transcripts by in vitro transcription. The data set is classed as biochemical. As to conditions: 1.25 mM cap analogue, 0.125 mM GTP. How it is done:
Prior to in vitro transcription annealing of a template was performed. DNA1 (SEQ ID NO: 1) and DNA2 (SEQ ID NO: 2) (20 μM each) were incubated in the presence of 4 mM Tris-HCl pH 8.0, 15 mM NaCl and 0.1 mM EDTA at 95° C. for 2 min and then at room temperature for 30 min. After 10-fold dilution the mixture was directly used for in vitro transcription.
The reaction was quenched by addition of 2 μl of 0.5 M EDTA pH 8.0 and purified with RNA Clean&Concentrator-5 kit (Zymo Research) to afford capped RNA1 (SEQ ID NO: 4) strands.
To reduce heterogeneity, each capped RNA1 (11.42 ng/μl, ca. 1 μM) was incubated in presence of 50 mM Tris-HCl pH 8.0, 50 mM MgCl2, RiboLock RNase Inhibitor (ThermoFisher Scientific) (2.0 U/μl) and DNA3 (SEQ ID NO: 3) (1 μM) at 37° C. for 1 h to afford RNA2 (SEQ ID NO: 5).^44 The reaction was stopped by freezing in liquid nitrogen and directly analyzed by PAGE (FIG. 3).
Relative bands intensity was determined using CLIQS v1.0 program.

Data set [4] deals with Rabbit Reticulocyte Lysate. Description: Translation efficiency of capped firefly luciferase mRNA in Rabbit Reticulocyte Lysate System. In kind it is biochemical. The conditions noted are these: relative, m^7GpppG = 1. How it is done: The reaction was quenched by addition of 2 μl of 0.5 M EDTA pH 8.0 and purified with NucleoSpin RNA Clean-up XS kit (Macherey-Nagel) to afford luciferase-coding RNA strands capped with appropriate cap analogue.
For each capped luciferase-coding RNA four diluted solutions were prepared—3.0 ng/μl, 1.5 ng/μl, 0.75 ng/μl, 0.375 ng/μl. Translation studies were performed using Rabbit Reticulocyte Lysate System (Promega). 9 μl of a mixture containing Rabbit Reticulocyte Lysate (4 μl), Amino Acid Mixture Minus Leucine (0.05 μl of 1 mM solution), Amino Acid Mixture Minus Methionine (0.05 μl of 1 mM solution), potassium acetate (1.9 μl of 1 M solution), MgCl2 (0.4 μl of 25 mM solution) and 2.1 μl of water was incubated at 30° C. for 1 h after which 1 μl of appropriate luciferase-coding RNA solution was added and incubation of the reaction was continued at 37° C. for another hour. The reaction was stopped by freezing in liquid nitrogen.
Translation efficiency was determined using Luciferase Reporter System (Promega). The samples were defrosted just before the experiment. To every sample 50 μl of Luciferase Assay Reagent was added just before measurement of luminescence on Synergy H1 Microplate Reader (Bio Tek). The measurement were performed for every four samples independently due to low stability of luminescence signal. The results are presented on. FIG. 4 as proportions between regression coefficients of linear relationships between capped luciferase-coding RNA concentration in translation reaction (300 pg/μl, 150 pg/μl, 75 pg/μl, 37.5 pg/μl) and corresponding luminescence signal.

The target in data set [5] is T1, eIF4E. The conditions noted are these: reference cap analogues, values from refs 42/43; cited from earlier work.

T1 sequence (P63073 28-217 limits assumed): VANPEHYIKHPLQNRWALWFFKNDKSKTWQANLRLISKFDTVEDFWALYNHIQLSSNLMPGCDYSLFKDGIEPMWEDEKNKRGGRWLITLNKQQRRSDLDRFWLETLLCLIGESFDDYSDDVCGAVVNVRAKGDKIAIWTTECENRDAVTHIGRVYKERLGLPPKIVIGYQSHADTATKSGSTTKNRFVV

As to `C[n+]1cn([C@@H]2O[C@H](COP(=O)(O)OP(=O)(O)OP(=O)([O-])c3cn(CCNP(=O)(O)OC[C@H]4O[C@@H](n5cnc6c(=O)[nH]c(N)nc65)C(O)C4O)nn3)C(O)C2O)c2nc(N)[nH]c(=O)c21` (stereo partly shown) [m^7GppptC2H4NHpG, m^7Gppp-triazole-C2H4NHpG], in data set [1], the “hydrolysis in D2O” value turned out to be 13%. In data set [2], the KAS came out at 21.94 ± 0.69 µM⁻¹. The same compound gave a Capping efficiency in data set [3] of 52%. Besides, in data set [4], the Translation efficiency is given as 0.89 ± 0.11.

Consider `C[n+]1cn([C@@H]2O[C@H](COP(=O)(O)NCCn3cc(CP(=O)(O)OP(=O)([O-])OC[C@H]4O[C@@H](n5cnc6c(=O)[nH]c(N)nc65)C(O)C4O)nn3)C(O)C2O)c2nc(N)[nH]c(=O)c21` (stereo partly shown) [m^7GpNHC2H4tCH2ppG, m^7GpNHC2H4-triazole-CH2ppG], for which, in data set [1], the “hydrolysis in D2O” value stood at 11%. Besides, the Capping efficiency in data set [3] is given as 47%. Also, the Translation efficiency in data set [4] came to 0.085 ± 0.017.

For `C[n+]1cn([C@@H]2O[C@H](COP(=O)(O)OP(=O)(O)CCc3cn(CCNP(=O)(O)OP(=O)([O-])OC[C@H]4O[C@@H](n5cnc6c(=O)[nH]c(N)nc65)[C@@H](O)C4O)nn3)[C@H](O)C2O)c2nc(N)[nH]c(=O)c21` (stereo partly shown) [m^7GppC2H4tC2H4NHppG, m^7GppC2H4-triazole-C2H4NHppG], the “hydrolysis in D2O” value in data set [1] stood at 10%. In data set [3], this compound yielded a Capping efficiency of 48.8%. Besides, the Translation efficiency in data set [4] was found to be 0.085 ± 0.017.

Turning to `C[n+]1cn([C@@H]2O[C@H](COP(=O)(O)NCCn3cc(P(=O)([O-])OP(=O)(O)OP(=O)(O)OC[C@H]4O[C@@H](n5cnc6c(=O)[nH]c(N)nc65)C(O)C4O)nn3)C(O)C2O)c2nc(N)[nH]c(=O)c21` (stereo partly shown) [m^7GpNHC2H4tpppG, m^7GpNHC2H4-triazole-pppG], the “hydrolysis in D2O” value in data set [1] is 9%. Besides, the KAS in data set [2] was found to be 3.10 ± 0.18 µM⁻¹. Also, the Capping efficiency in data set [3] is 57%. Also, in data set [4], the Translation efficiency came to 0.103 ± 0.027.

In data set [3], `CO[C@H]1[C@@H](O)[C@H]([n+]2cn(C)c3c(=O)[nH]c(N)nc32)O[C@@H]1COP(=O)([O-])OP(=O)(O)OP(=O)(O)OC[C@H]1O[C@@H](n2cnc3c(=O)[nH]c(N)nc32)[C@H](O)[C@@H]1O` [m2^7,3′-OGpppG, reference compound] yielded a Capping efficiency of 83%. The Translation efficiency in data set [4] is recorded as 1.526 ± 0.043. Besides, the KAS in data set [5] was 10.2 ± 0.6^43 μM^−1.

With `C[n+]1cn([C@@H]2O[C@H](COP(=O)(O)OP(=O)([O-])OP(=O)(O)Cc3cn(CCNP(=O)(O)OC[C@H]4O[C@@H](n5cnc6c(=O)[nH]c(N)nc65)C(O)C4O)nn3)C(O)C2O)c2nc(N)[nH]c(=O)c21` (stereo partly shown) [m^7GpppCH2tC2H4NHpG, m^7GpppCH2-triazole-C2H4NHpG], in data set [1], the “hydrolysis in D2O” value came out at 9%. In data set [2], this compound came in with a KAS of 18.21 ± 0.72 µM⁻¹. In data set [3], this compound displayed a Capping efficiency of 44%. Moreover, the Translation efficiency in data set [4] is on record as 0.94 ± 0.11.

As for “m2^7,2′-OGppp-triazole-C2H4NHpG [m2^7,2′-OGppptC2H4NHpG]”, the “hydrolysis in D2O” value in data set [1] came to 8%. Also, the Capping efficiency in data set [3] is 41%. Also, in data set [4], the Translation efficiency stood at 1.462 ± 0.182.

In the case of `Cn1c[n+]([C@@H]2O[C@H](COP(=O)(O)OP(=O)([O-])O)[C@@H](O)[C@H]2O)c2nc(N)[nH]c(=O)c21` [m^7GDP], the KAS in data set [5] is recorded as 20.4 ± 1.5^42 μM^−1.

In the case of `Cn1c[n+]([C@@H]2O[C@H](COP(=O)(O)OP(=O)([O-])OP(=O)(O)OC[C@H]3O[C@@H](n4cnc5c(=O)[nH]c(N)nc54)[C@H](O)[C@@H]3O)[C@@H](O)[C@H]2O)c2nc(N)[nH]c(=O)c21` [m^7GpppG, reference compound], in data set [3], the Capping efficiency is on record as 90%. The Translation efficiency in data set [4] stood at 1. Further, the KAS in data set [5] was 12.5 ± 0.3^43 μM^−1.
